Measured values published in US10000483B2, “Bone marrow on X chromosome kinase (BMX) inhibitors and uses thereof” (Dana-Farber Cancer Institute, Inc., priority 2012, dated 2018).

What was measured:
BMX [1] = target: T1, BMX (Homo sapiens (Human), UniProt P51813); assay: Invitrogen Select Screening in vitro kinase assay; format: biochemical
From the text: (§2) The in vitro activity of compounds of Formula (I) and (II) in inhibiting BMX and other kinases were obtained using an Invitrogen Select Screening assay as known in the art.

ITK = ITK (Homo sapiens (Human), UniProt Q08881); assay: Invitrogen Select Screening in vitro kinase assay; format: biochemical
From the text: as §2

mTORC1 = mTORC1 (Homo sapiens (Human), UniProt P42345); assay: Invitrogen Select Screening in vitro kinase assay; format: biochemical
From the text: as §2

JAK3 = JAK3 (Homo sapiens (Human), UniProt P52333); assay: DiscoverX binding assay
From the text: (§3) Screening hits are identified by measuring the amount of protein captured in test versus control samples by using a quantitative, precise, and ultra-sensitive qPCR method that detects the associated DNA label.

TEC = TEC (Homo sapiens (Human), UniProt P42680); assay: DiscoverX binding assay
From the text: as §3

MEK5 = MEK5 (Homo sapiens (Human), UniProt Q13163); assay: Kinase panel at 1 uM (Table 9); format: binding; settings: read-out: % inhibition at 1 uM, MEK5
From the text: as §3

TAK1 = TAK1 (Homo sapiens (Human), UniProt O43318); assay: Kinase panel at 1 uM (Table 9); format: binding; settings: read-out: % inhibition at 1 uM, TAK1
From the text: as §3

CSNK2A2 = CSNK2A2 (Homo sapiens (Human), UniProt P19784); assay: Kinase panel at 1 uM (Table 9); format: binding; settings: read-out: % inhibition at 1 uM, CSNK2A2
From the text: as §3

DYRK1B = DYRK1B (Homo sapiens (Human), UniProt Q9Y463); assay: Kinase panel at 1 uM (Table 9); format: binding; settings: read-out: % inhibition at 1 uM, DYRK1B
From the text: as §3

RV-1 cells = assay: Anti-proliferation assay for prostate cancer cells (CellTiter-Glo); format: cell-based
Experimental: (§4) Data were normalized to control group (DMSO) and represented by the mean of at least two independent measurement with standard error <20%. GI50 were calculated using Prism 5.0 (GraphPad Software, San Diego, Calif.).

OCI-Ly3 cells = assay: Cell proliferation analysis for WM and lymphoma cell lines (CellTiter-Glo); format: cell-based; settings: Homo sapiens, 72 hours
Experimental: (§5) Various cell lines were used including Waldenström's macroglobulinemia (WM) cell lines (BCWM.1, MWCL-1, RPCI-WM1) and B-cell lymphoma cell lines (OCI-Ly3, Ramos, OCI-Ly19). Cells were seeded into 384 well plates with the EL406 Combination Washer Dispenser (BioTek Instruments, Inc.) and inhibitor compounds were injected into the cells culture media with the JANUS Automated Workstation (PerkinElmer Inc.).

Ramos cells = assay: as above; format: cell-based; settings: Homo sapiens, 72 hours
Experimental: as §5

OCI-Ly19 cells = assay: as above; format: cell-based; settings: Homo sapiens, 72 hours
Experimental: as §5

BMX (C496S) = BMX (C496S) (Homo sapiens (Human), UniProt P51813, C496S); assay: IP kinase assay, BMX autophosphorylation; format: biochemical; settings: FIG. 15A
From the text: (§1) FIG. 15 confirms that the potency of the BMX inhibitors is due to covalent binding to cysteine 496.

wild-type (WT) BMX = wild-type (WT) BMX (Homo sapiens (Human), UniProt P51813); assay: IP kinase assay, BMX autophosphorylation; format: biochemical; settings: FIG. 15
From the text: as §1

FAK pY576/577 = assay: FAK pYpY phosphorylation blot in RV1 cells cotransfected with BMX and FAK; format: cell-based; settings: FIG. 17
RV1 cells = assay: Prostate cancer cell apoptosis, cleaved caspase 3; format: cell-based
From the text: Caspase-3 positive cells were counted and normalized to total cell number (N=5).

BMX [2] = target: T1, BMX; assay: BMX autophosphorylation in RV-1 cells; format: cell-based
[3] = tested on: TEL-JAK2 transformed Ba/F3 cells; assay: cells; settings: Mus musculus, BaF3, read-out: GI50, TEL-JAK2
[4] = tested on: TEL-Abl transformed Ba/F3 cells; assay: cells; settings: Mus musculus, BaF3, read-out: GI50, TEL-Abl
DU-145 cells = assay: cells; settings: Homo sapiens, DU-145, read-out: GI50, DU-145
Experimental: as §4

C4-2 cells = assay: cells; settings: C4-2, read-out: GI50, C4-2
Experimental: as §4

C=CC(=O)Nc1cc(-n2c(=O)ccc3cnc4ccc(-c5ccc(NS(C)(=O)=O)cc5)cc4c32)ccc1C [I-14]
IC50 (BMX [1]): 7.99 nM
IC50 (ITK): 5.25 µM
IC50 (mTORC1): 7.4 µM
Percent Control, JAK3 (JAK3; DiscoverX binding): 20%
inhibition at 1 µM (JAK3; read-out: % inhibition at 1 uM, JAK3(JH1domain-catalytic)): 6.6%
Percent Control, TEC (TEC): 27%
inhibition at 1 µM (MEK5): 100%
inhibition at 1 µM (TAK1): 83%
inhibition at 1 µM (CSNK2A2): 100%
inhibition at 1 µM (DYRK1B): 100%
GI50 (RV-1 cells; RV-1): 2540 nM
IC50 (RV-1 cells; RV-1, 120 h, 5 day incubation): 2530 nM
EC50 (OCI-Ly3 cells): > 20 µM
EC50 (Ramos cells): > 20 µM
EC50 (OCI-Ly19 cells): 900 nM
concentration inhibiting autophosphorylation of BMX (C496S) (BMX (C496S)): > 10,000 nM
concentration inhibiting autophosphorylation of wild-type BMX (wild-type (WT) BMX): 10 to 100 nM
BMX mediated phosphorylation of pYpY site on FAK (FAK pY576/577): inhibits BMX mediated phosphorylation of pYpY site on FAK
cell numbers and apoptosis by Caspase 3 staining (RV1 cells; 5 pM concentration (so in the source)): reduced cell numbers and induced apoptosis
concentration causing apoptosis based on increased cleaved caspase 3 (RV1 cells; FIG. 18C): 10 to 20 µM
concentration sufficient to inhibit BMX autophosphorylation in RV-1 cells (BMX [2]): ≤ 1 µM
GI50 [3]: 5.83 µM
GI50 [4]: > 10 µM
GI50 (DU-145 cells): 4.38 µM
GI50 (C4-2 cells): > 10 µM
